This is an account of results in US10364263B2, “Cyclic phosphates and cyclic phosphoramidates for the treatment of neurologic disorders” (Retrophin, Inc., priority 2015, dated 2019).

The nature of series [1]: Stability in mouse plasma. The class given is in vitro ADME. The following applies: for t1/2, Mouse Plasma, Diastereoisomer B: 3 µM. Put shortly:
(§1)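 Test compound at 3 μM (0.1% DMSO) was incubated in mouse or human plasma at 37 °C and sampled in duplicate at 0, 10, 20, 30, 40 and 60 min. Reactions were stopped with acetonitrile/formic acid containing internal standard. Remaining parent was measured by UPLC-MS/MS without a calibration curve.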

Series [2] concerns PANK2 silenced human neuroblastoma IMR32 cells (PANK2−/−). Description: Coenzyme A assay in PANK2 silenced cells (LC-MS quantification of free CoA). The following applies: compound added twice (24 h + 24 h), relative to 0.1% DMSO controls. Format: cell-based. The method in brief: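 PANK2 shRNA-silenced IMR32 neuroblastoma cells were treated with compound (0.1% DMSO) for 24 h, then re-dosed with fresh compound for a further 24 h at 37 °C. TFA extracts of 1×10^6 cells were assayed for free CoA by LC-MS/MS (MRM 768.1→261.6/136.1). Results are given as fold change versus DMSO controls.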

Series [3] can be described thus: Stability in mouse hepatocytes. Format: in vitro ADME. The protocol: (§2) Stability in hepatocytes for select compounds disclosed in the application was evaluated in two species (mouse and human) according to the following procedure. Compounds and positive control samples were dissolved in 100% DMSO at 5 mM. Cryopreserved hepatocytes were thawed and resuspended in Hepatocyte Basal Medium (HBM-Lonza CC-3199) supplemented with CC-4182 (complete hepatocyte culture medium). Test compounds were diluted into cell suspension (1 million cells/ml) from the stock solutions to have a test compound concentration of 5 μM (0.1% DMSO). Incubation was performed in 24-well plates, at 37° C. in a DUBNOFF water bath, under low shaking. Each compound was tested at 6 time points, in duplicates (0, 15, 30, 60, 120 and 240 min). At each time point, an aliquot of 120 μl was taken and transferred to a 96-well deep plate. The reaction was stopped with the addition of one volume of 100% acetonitrile plus 0.1% formic acid and the appropriate internal standard. Then samples were centrifuged at 1100×g for 30 min at +4° C. and supernatants were transferred to a new 96-deepwell plate. Samples were evaporated under N2 and reconstituted in H2O/ACN 0.1% Formic Acid (98:2). Analysis was performed without a calibration curve (Acquity UPLC-Waters; Sciex API4000). Time 0 was obtained adding acetonitrile before addition of the test compound. […] The half-life (t1/2) expressed in hours is derived using Equation 1 as shown in Example 64.

Series [4] is described as follows: Stability in human hepatocytes. Format: in vitro ADME. The following applies: for half-life at 5 µM: t1/2, Human Hepatocytes. The protocol: as §2
Series [5] is described as follows: Stability in human plasma. Format: in vitro ADME. The following applies: 37° C. The method in brief: as §1
[6] abbreviates: t1/2, Mouse Hepatocytes, Diastereoisomer A.
Where [7] appears, read: t1/2, Mouse Hepatocytes, Diastereoisomer B.
Setting [8] is: human, plasma, Diastereoisomer A (upfield shift in 31P NMR), read-out: t1/2, Human Plasma, Diastereoisomer A (converted).
[9] abbreviates: human, plasma, Diastereoisomer B, read-out: t1/2, Human Plasma, Diastereoisomer B (converted).

Some results are limits rather than exact numbers.

As for `CC(C)(C)C(=O)OCO[P@@]1(=O)OCC(C)(C)[C@H](C(=O)NCCC(=O)OCCS(C)(=O)=O)O1` (single isomer, unassigned) [Compound No. 78], the half-life at 3 µM in series [1] (mouse, plasma) was less than 9.6 min; in series [5] (setting [8]), greater than 60 min; in series [5] (setting [9]), less than 9.6 min. The “t1/2, Mouse Plasma, Diastereoisomer B” value in series [1] (mouse, plasma) is less than 9.6 min. The “PANK2−/− CoA (Fold Increase): fold increase in Coenzyme A (CoA) levels relative to controls” value in series [2] is 120.6 Fold Increase. The half-life at 5 µM was less than 15 min in series [3] (setting [6]), less than 15 min in series [3] (setting [7]), 26.4 min in series [4] (Diastereoisomer A) and 19.8 min in series [4] (Diastereoisomer B).
For `COC(=O)CCNC(=O)[C@@H]1O[P@](=O)(OCOC(=O)C(C)(C)C)OCC1(C)C` (single isomer, unassigned) [Compound No. 89], the half-life at 3 µM is less than 9.6 min in series [1] (mouse, plasma) and less than 9.6 min in series [5] (setting [8]). Moreover, the “PANK2−/− CoA (Fold Increase): fold increase in Coenzyme A (CoA) levels relative to controls” value in series [2] worked out at 154.1 Fold Increase. For the same compound, the half-life at 5 µM in series [3] (setting [6]) and in series [4] (Diastereoisomer A) was less than 15 min throughout.
`COC(=O)CCNC(=O)[C@@H]1OP(=O)(N[C@@H](Cc2cncs2)C(=O)OCc2ccccc2)OCC1(C)C` (stereo partly drawn) [compound 29, benzyl (2S)-2-(((4R)-4-((3-methoxy-3-oxopropyl)carbamoyl)-5,5-dimethyl-2-oxido-1,3,2-dioxaphosphinan-2-yl)amino)-3-(thiazol-5-yl)propanoate]: the half-life at 3 µM was less than 9.6 min in series [1] (mouse, plasma); greater than 60 min in series [5] (setting [8]); greater than 60 min in series [5] (setting [9]). Moreover, the “t1/2, Mouse Plasma, Diastereoisomer B” value in series [1] (mouse, plasma) was less than 9.6 min. Moreover, the “PANK2−/− CoA (Fold Increase): fold increase in Coenzyme A (CoA) levels relative to controls” value in series [2] turned out to be 1.17 Fold Increase. For the same compound, the half-life at 5 µM is less than 15 min in series [3] (setting [6]), less than 15 min in series [3] (setting [7]), 36 min in series [4] (Diastereoisomer A) and 15.6 min in series [4] (Diastereoisomer B).
For the compound `COC(=O)CCNC(=O)[C@@H]1OP(=O)(N[C@@H](Cc2ccccc2)C(=O)OC(C)(C)C)OCC1(C)C` (stereo partly shown) [compound 4], the half-life at 3 µM in series [1] (Diastereoisomer A (upfield shift in 31P NMR), 3 μM, 37° C., mouse plasma, read-out: t1/2, Mouse Plasma, Diastereoisomer A) was less than 9.6 min; in series [5] (Diastereoisomer A (upfield shift in 31P NMR), read-out: t1/2, Human Plasma, Diastereoisomer A (converted)), greater than 60 min. The “PANK2−/− CoA (Fold Increase): fold increase in Coenzyme A (CoA) levels relative to controls” value in series [2] is on record as 1.2 Fold Increase. In series [3] (Diastereoisomer A (upfield shift in 31P NMR), 5 μM, 1 million cells/ml, 37° C., mouse hepatocytes, read-out: t1/2, Mouse Hepatocytes, Diastereoisomer A (converted)), the half-life at 5 µM was 34.8 min. The half-life in series [4] (Diastereoisomer A (upfield shift in 31P NMR), 5 μM, 1 million cells/ml, 37° C., human hepatocytes, read-out: t1/2, Human Hepatocytes, Diastereoisomer A (converted)) was 26.4 min.
With `COC(=O)CCNC(=O)[C@@H]1OP(=O)(OC(C)OC(=O)c2ccccc2)OCC1(C)C` (stereo partly drawn) [compound 98, 1-(((4R)-4-((3-methoxy-3-oxopropyl)carbamoyl)-5,5-dimethyl-2-oxido-1,3,2-dioxaphosphinan-2-yl)oxy)ethyl benzoate], the half-life at 3 µM in series [1] (mouse, plasma) is less than 9.6 min; in series [5] (setting [8]), greater than 60 min; in series [5] (setting [9]), 18 min. Besides, the “t1/2, Mouse Plasma, Diastereoisomer B” value in series [1] (mouse, plasma) was less than 9.6 min. Besides, the “PANK2−/− CoA (Fold Increase): fold increase in Coenzyme A (CoA) levels relative to controls” value in series [2] was 4.01 Fold Increase. The half-life at 5 µM in series [3] (setting [6]), in series [3] (setting [7]), in series [4] (Diastereoisomer A) and in series [4] (Diastereoisomer B) was less than 15 min each time.
